Laboratory results as given in the supplement of paper PMC10307832.

Columns and labels:
Test in all cases: relative viability (nuclei count vs DMSO), 5 days (fraction); higher = more cells survive
Doramapimod + Decitabine = compound: Cc1ccc(-n2nc(C(C)(C)C)cc2NC(=O)Nc2ccc(OCCN3CCOCC3)c3ccccc23)cc1 [Doramapimod] + Nc1ncn([C@H]2C[C@H](O)[C@@H](CO)O2)c(=O)n1 [Decitabine] (partner 2 µM)
In short: (§1)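 Cells from lung cancer lines were seeded into 1536-well plates and, one day later, dosed by pin tool. Treatments were either a single drug or a fixed dose of an anchor drug with five library-drug doses (not always all listed) in √10 steps. After 5 days, nuclei were stained in a one-step fixation (final 0.05% Triton X-100, 1% formaldehyde, 1 ug/ml Hoechst) and counted on 4× images, and relative viability is the treated-to-vehicle nuclei ratio, as the median of duplicate plates.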

RAF265 + Vorinostat = compound: Cn1c(Nc2ccc(C(F)(F)F)cc2)nc2cc(Oc3ccnc(-c4ncc(C(F)(F)F)[nH]4)c3)ccc21 [RAF265] + O=C(CCCCCCC(=O)Nc1ccccc1)NO [Vorinostat] (partner 1 µM)
In short: as §1

RAF265 + Palbociclib = compound: Cn1c(Nc2ccc(C(F)(F)F)cc2)nc2cc(Oc3ccnc(-c4ncc(C(F)(F)F)[nH]4)c3)ccc21 [RAF265] + CC(=O)c1c(C)c2cnc(Nc3ccc(N4CCNCC4)cn3)nc2n(C2CCCC2)c1=O [Palbociclib] (partner 0.5 µM)
In short: as §1

Doramapimod + Alpelisib = compound: Cc1ccc(-n2nc(C(C)(C)C)cc2NC(=O)Nc2ccc(OCCN3CCOCC3)c3ccccc23)cc1 [Doramapimod] + Cc1nc(NC(=O)N2CCC[C@H]2C(N)=O)sc1-c1ccnc(C(C)(C)C(F)(F)F)c1 [Alpelisib] (partner 2 µM)
In short: as §1

| Cell Line | relative viability (Doramapimod + Decitabine; first compound 0.02 µM) | relative viability (Doramapimod + Decitabine; first compound 0.06325 µM) | relative viability (Doramapimod + Decitabine; first compound 0.2 µM) | relative viability (Doramapimod + Decitabine; first compound 0.6325 µM) | relative viability (Doramapimod + Decitabine; first compound 2 µM) | relative viability (RAF265 + Vorinostat; first compound 0.01 µM) | relative viability (RAF265 + Vorinostat; first compound 0.03162 µM) | relative viability (RAF265 + Vorinostat; first compound 0.1 µM) | relative viability (RAF265 + Vorinostat; first compound 0.3162 µM) | relative viability (RAF265 + Vorinostat; first compound 1 µM) | relative viability (RAF265 + Palbociclib; first compound 0.01 µM) | relative viability (RAF265 + Palbociclib; first compound 0.03162 µM) | relative viability (RAF265 + Palbociclib; first compound 0.1 µM) | relative viability (RAF265 + Palbociclib; first compound 0.3162 µM) | relative viability (RAF265 + Palbociclib; first compound 1 µM) | relative viability (Doramapimod + Alpelisib; first compound 0.02 µM) | relative viability (Doramapimod + Alpelisib; first compound 0.06325 µM) | relative viability (Doramapimod + Alpelisib; first compound 0.2 µM) | relative viability (Doramapimod + Alpelisib; first compound 0.6325 µM) | relative viability (Doramapimod + Alpelisib; first compound 2 µM) |
| --- | --- | --- | --- | --- | --- | --- | --- | --- | --- | --- | --- | --- | --- | --- | --- | --- | --- | --- | --- | --- |
| NCI-H2087 | 0.286 | 0.206 | 0.277 | 0.232 | 0.201 | 0.634 | 0.359 | 0.757 | 0.864 | 0.719 | 0.238 | 0.207 | 0.181 | 0.164 | 0.159 | 1.2 | 1.25 | 1.05 | 1.23 | 0.838 |
| LC-2-ad | 0.828 | 0.776 | 0.793 | 0.854 | 0.768 | 0.774 | 0.7 | 0.729 | 0.596 | 0.387 | 0.488 | 0.499 | 0.55 | 0.58 | 0.29 | 0.943 | 0.995 | 0.884 | 0.888 | 0.835 |
| PC-3 [JPC-3] | 0.834 | 0.816 | 0.857 | 0.888 | 0.766 | 0.942 | 0.78 | 1.08 | 0.455 | 0.487 | 0.55 | 0.538 | 0.524 | 0.437 | 0.429 | 1.15 | 1.01 | 1.09 | 1.11 | 0.978 |
| EBC-1 |  |  |  |  |  |  |  |  |  |  |  |  |  |  |  | 0.804 | 0.792 | 0.785 | 0.933 | 0.675 |
